# From the NIST ThermoML archive (doi:10.1021/je300938w)
# ± gives the expanded uncertainty stated by the source.
# Assays:
# [1] = refractive index (Na D-line) (dimensionless); details: 101.33 kPa, Liquid, Standard Abbe refractometry
# [2] = 101.33 kPa, Liquid; for viscosity: Concentric cylinders viscometry; for mass density: Vibrating tube method
refractive index ([1]; 298.15 K),viscosity ([2]; 298.15 K) [mPa·s],mass density ([2]; 298.15 K) [kg/m3],Structure (SMILES),refractive index ([1]; 323.15 K),viscosity ([2]; 323.15 K) [mPa·s],mass density ([2]; 323.15 K) [kg/m3],further results
1.4764 ± 0.00073,566.57 ± 46,1093.22 ± 0.17,OCCNCCO [diethanolamine],–,–,–,–
1.33249 ± 0.00042,0.9123 ± 0.0097,–,O [water],–,–,–,refractive index ([1]; 293.15 K): 1.33304 ± 0.00042; viscosity ([2]; 293.15 K): 1.019 ± 0.01 mPa·s

# More lines, now with the values behind:
Structure (SMILES),refractive index ([1]; 298.15 K),viscosity ([2]; 298.15 K) [mPa·s],mass density ([2]; 298.15 K) [kg/m3],refractive index ([1]; 323.15 K),viscosity ([2]; 323.15 K) [mPa·s],mass density ([2]; 323.15 K) [kg/m3],further results
CC(O)CN (centres undefined) [1-amino-2-propanol],1.4459 ± 0.00082,23.26 ± 0.41,956.644 ± 1,–,–,–,–
CC(O)CNCC(C)O (centres undefined) [N-(2-hydroxypropyl)-2-hydroxy-1-propanamine],–,–,–,1.45139 ± 0.00068,123.21 ± 4.4,984.835 ± 1.1,refractive index ([1]; 313.15 K): 1.45517 ± 0.00068; viscosity ([2]; 313.15 K): 308.54 ± 11 mPa·s; mass density ([2]; 313.15 K): 992.46 ± 1.1 kg/m3
CC(O)CN(CC(C)O)CC(C)O (centres undefined) [triisopropanolamine],–,–,–,1.45233 ± 0.0012,132.3 ± 5.5,990.616 ± 6.8,–
